Measured values from patent publication US20220023273A1, “METHODS FOR TREATING SYMPTOMS AND DISORDERS ASSOCIATED WITH LYSOSOMAL STORAGE DISEASES” (GENZYME CORPORATION, priority 2019, published 2022).
Values joined by “and” are separate entries in the source; they are usually repeats but may differ in a detail not shown here. Equal entries are not always repeated. Where two headings read alike, the source gives them in different places.

Legend:
Type in all cases: in vivo, human
[1] = Phase 1 studies: safety profile
Description: In all studies, safety profile was assessed by monitoring treatment-emergent adverse events (TEAEs) through 10 days after last dose of study medication, including serious adverse events [SAEs]), ECG monitoring, laboratory values, and physical examinations.

[2] = tested on: adult patients with Gaucher disease Type 3; test: GD3 clinical study: trail making test (TMT); settings: GD3, 15 mg/day oral + imiglucerase
From the text: The trail making test (TMT) was used to evaluate cognitive function in the patients. The TMT is one of the most widely used neuropsychological tests and is included in most test batteries. The TMT is a diagnostic tool to assess general intelligence and cognitive dysfunctions (Tombaugh et al. [2004]; Cavaco et al. [2013]). In part A of the TMT, subjects are asked to connect a cluster of numbers in ascending order. This task is a combination of visual search and general visual and motor processing speed. Part B presents a sequence which alternates between numbers and letters. Subjects must actively switch between both categories when connecting them in ascending, but alternating order.
TMT-A evaluates mainly perceptual and psychomotor speed. TMT-B assesses more specifically mental flexibility and shifting abilities. TMT B minus TMT A score is used to remove the variance attributable to the graphomotor and visual scanning components of TMT A. This derived score reflects the unique task requirements of TMT B.

[3] = GD3 clinical study: pharmacokinetics in plasma and CSF; settings: for AUC: human, plasma, po, Day 1 (N = 5), read-out: AUC0_24 (mean ± SD)
From the text: Patients 18 years of age or older with a clinical diagnosis of GD3 and documented deficiency of acid beta-glucosidase activity having received treatment with ERT for at least 3 years and with imiglucerase (Cerezyme) at a stable monthly dose for at least 6 months prior to enrollment were included in the study. Patients must have reached the following GD therapeutic goals: hemoglobin level of ≥11.0 g/dL for females and ≥12.0 g/dL for males; platelet count ≥100 000/mm3; spleen volume <10 multiples of normal (MN), or total splenectomy (provided the splenectomy occurred >3 years prior to randomization); liver volume <1.5 MN; and no bone crisis and free of symptomatic bone disease such as bone pain attributable to osteonecrosis and/or pathological fractures within the last year. Patients must have GD3 featuring oculomotor apraxia (supranuclear gaze palsy) characterized by a horizontal saccade abnormality.
(§1) During the study patients were evaluated for safety and tolerability, CSF and plasma biomarkers (glucosylceramide, GL-1; glucosylsphingosine, lyso-GL1), pharmacokinetics, markers for systemic disease (spleen and liver volume measured by magnetic resonance imaging (MRI), platelet count, hemoglobin levels), indicia of interstitial lung disease (high resolution pulmonary computed tomography (CT)), and horizontal saccadic eye movement.
A second interim analysis was performed when the first 6 patients had reached 52-weeks of treatment, as described above in section (A). This analysis included Patients 1-5 as described in section (A), as well as new Patient 6. All six patients had L444P (1448T/C) homozygous Gaucher phenotype.

[4] = tested on: adult patients with Gaucher disease Type 3; test: GD3 clinical study: Scale for Assessment and Rating of Ataxia (SARA)
Description: The degree of ataxia at baseline and throughout the study was evaluated by the Scale for Assessment and Rating of Ataxia (SARA; Schmitz-Hubsch et al. [2006]), which assesses eight distinct attributes of cerebellar ataxia on a scale of 0-40. The eight attributes are gait, stance, sitting, speech disturbance, finger chase, nose-finger test, fast alternate hand movement, and heel-shin slide. SARA ataxia scoring results for all six patients is presented in the chart below: […]

[5] = tested on: glucosylceramide (GL-1), glucosylsphingosine (lyso-GL1); test: GD3 clinical study: CSF and plasma biomarkers GL-1 and lyso-GL1; settings: GD3, 15 mg/day oral + imiglucerase
Description: as §1
At baseline, the mean (±SD) GL-1 concentration in CSF was 7.1±2.8 ng/mL (range 4.4-11.1 ng/mL), while the mean (±SD) lyso-GL-1 concentration in CSF was 39.3±22.9 pg/mL (range 20.1-67.6 pg/mL). For comparison, the healthy GL-1 concentration in CSF is 4.5-5.9 ng/mL, and the healthy level of lyso-GL-1 in CSF is less than 5.0 pg/mL.

[6] = tested on: adult patients with Gaucher disease Type 3; test: GD3 clinical study: resting-state fMRI connectivity; settings: Patient 5 likely non-compliant, GD3, 15 mg/day oral + imiglucerase
Description: Neurological function—was further evaluated using functional magnetic resonance imaging (fMRI). Patient 2 was excluded because no fMRI data was collected at the Week 52 session. Resting-state fMRI screening sessions were performed at baseline screening, Week 26, and Week 52 visits. Connectivity estimates from four subjects (Patients 1, 3, 4 and 5) were entered into second-level analyses as a “compliant” group. Patient 5 was isolated due to likely non-compliance with study medication, as described above. Analyses were performed as described elsewhere (Smith et al. [2009]).
Spatial analysis of the connectivity between different anatomic regions of the brain is performed to define a correlation coefficient for regressed voxelwise mean intensity.

plasma GL-3 = test: Fabry: matched comparison with historical phase 3 trial of agalsidase beta; settings: Fabry males, 15 mg/day oral
From the text: Mean ages were similar across the three groups.

[7] = tested on: plasma GL-1, GL-3, and GM3; test: Phase 1 Study 2: pharmacodynamics
Description: The study enrolled and randomized 36 healthy adults (19 men and 17 women) (n=9 each to group).
Pharmacodynamic endpoints (plasma GL-1, GL-3, and GM3 concentrations) were assessed on Days 1-5, 8, 11, 13, and 14, at 0 hours […]; and on Day 15, at 24 hours after the Day 14 dose.

[8] = healthy volunteers, all Phase 1 studies

Q: What does the source list for `CC(C)(NC(=O)O[C@@H]1CN2CCC1CC2)c1csc(-c2ccc(F)cc2)n1` [Compound 2, (S)-quinuclidin-3-yl (2-(2-(4-fluorophenyl)thiazol-4-yl)propan-2-yl)carbamate]?
A: Vital signs [1, 8]: no relevant changes from baseline; deaths, SAEs, severe TEAEs, discontinuations [1, 8]: no deaths, SAEs, severe TEAEs, or TEAEs leading to study discontinuation; hematologic or biochemical abnormalities [1, 8]: No clinically relevant hematologic or biochemical abnormalities; ECG parameters ([1]; single ascending dose and food effect studies): no relevant changes; TMT-A-TMT-B ([2]; Week 52, individual patients 1-6): 20 s; patients with a TMT-A reduction, excluding Patient 5 ([2]; Week 52): four of five; patients with a TMT-B reduction, excluding Patient 5 ([2]; Week 52): five of five; patients with a reduction in the (TMT B-TMT A) time ([2]; Week 52): 5 of 6; patients with an improvement in Trail B minus Trial A, excluding Patient 5 ([2]; Week 52): four of five; patients with reduction in time taken to complete Trail A ([2]; Week 52): Four of six; patients with reduction in time taken to complete Trail B ([2]; Week 52): six of six; TMT-A-TMT-B, Change (%) from Baseline to Week 52 ([2]; individual patients 1-6): −72% and −43%; Compound 2 in CSF, concentration 2-4 hours post dose (mean) ([3]; Day 1 (N = 6), GD3, 15 mg/day oral + imiglucerase): <LLOQ; time at which steady state concentration is reached in plasma and CSF ([3]; GD3, 15 mg/day oral + imiglucerase): ≤ 4 Week; Patient 5: lower concentrations of Compound 2 in plasma and CSF ([3]; Week 26, believed due to compliance or dosing errors): about 50%; Patient 5: concentrations of Compound 2 in plasma and CSF ([3]; Week 52, believed due to compliance or dosing errors): undetectable; crossing of the blood-brain barrier ([3]; all patients, GD3, 15 mg/day oral + imiglucerase): effectively cross the blood-brain barrier; AUC ([3]; 26-week interim, GD3, 15 mg/day oral + imiglucerase): 715 ± 225 ng·h/mL; AUC ([3]; 52-week interim, GD3, 15 mg/day oral + imiglucerase): 729 ± 205 ng·h/mL; patients showing improvements in ataxia ([4]; 52 weeks, GD3, 15 mg/day oral + imiglucerase): 5 of 6; SARA stance score, Patient 4 ([4]; Week 52 (baseline 1), knee pain and toe injury at exam): 5; patients exhibiting an improvement in ataxia, excluding Patient 5 ([4]; Week 52, GD3, 15 mg/day oral + imiglucerase): 4 out of 5; plasma and CSF biomarkers for GD-3 ([5]; 26 weeks): significant improvements; plasma and CSF biomarkers for GD-3 ([5]; 52 weeks): sustained significant improvements; connectivity between the default mode (resting) network and the executive function network [6]: increased in Patients 1, 3, 4 and 6, but decreased in Patient 5; reduction in plasma GL-3 (plasma GL-3; 26 weeks, matched comparison to placebo (−1.06 μg/mL, P<0.0001)): -3.62 µg/mL; plasma GL-3 reduction compared to agalsidase beta (plasma GL-3; 104 weeks (p=0.0351) and 156 weeks (p=0.0081)): significantly greater; day on which maximal sustained GM3 decreases start ([7]; all Compound 2 dose groups): 13 days; Plasma GL-3 ([7]; all Compound 2 dose groups, low baseline values relative to LLOQ): decreased with time; plasma GL-1 and GM3 levels ([7]; healthy adults, 5, 10, 20 mg once daily 14 days): decreased from baseline time- and dose-dependently
